# Experimental data taken from US12673944B2, “Compounds having inhibitory activity against glucosylceramide synthase or pharmaceutically acceptable salt thereof, processes for preparing the same, and pharmaceutical compositions comprising the same” (YUHAN CORPORATION, priority 2019, dated 2026).
# Key:
# [1] = target: T1, glucosylceramide synthase (GCS) (Homo sapiens, UniProt Q16739); assay: GCS enzyme inhibition assay (A549 cell lysate, NBD C6-ceramide, HPLC fluorescence); assay type: biochemical; settings: inhibitory activity against GCS, 37° C., 90 minutes
# T1 construct: The obtained supernatant was used; host or cells: A549 cells (lysate supernatant after sonication)
# T1 sequence (Q16739 1-394): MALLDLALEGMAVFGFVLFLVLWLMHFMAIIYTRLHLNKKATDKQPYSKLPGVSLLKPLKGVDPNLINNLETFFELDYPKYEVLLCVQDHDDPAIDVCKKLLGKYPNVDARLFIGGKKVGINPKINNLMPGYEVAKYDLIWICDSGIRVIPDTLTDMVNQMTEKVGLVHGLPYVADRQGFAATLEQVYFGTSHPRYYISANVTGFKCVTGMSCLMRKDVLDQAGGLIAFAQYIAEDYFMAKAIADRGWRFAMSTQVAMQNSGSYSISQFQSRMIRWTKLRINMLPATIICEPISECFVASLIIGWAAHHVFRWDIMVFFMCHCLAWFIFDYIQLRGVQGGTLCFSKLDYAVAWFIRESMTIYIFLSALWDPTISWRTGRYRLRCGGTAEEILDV
# Outline: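 A549 cell lysate (50 mM HEPES pH 7.3) served as GCS source; reactions ran 90 min at 37° C, were stopped with chloroform/methanol and lipids extracted. Activity taken as GlcCer/(Cer+GlcCer) peak area, normalised between DMSO and ibiglustat controls.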
# [2] = system: GM1 production in Jurkat cells; assay: cells; assay type: cell-based; settings: Homo sapiens, Jurkat, 72 h
SMILES,IC50 [1],IC50 [2]
"COc1ncc(-c2ccc3c(c2)OCC(C)(C)C3NC(=O)O[C@@H]2CN3CCC2CC3)cc1C (stereo partly drawn) [Example 254, (S)-quinuclidin-3-yl (7-(6-methoxy-5-methylpyridin-3-yl)-3,3-dimethylchroman-4-yl)carbamate]",1.7 nM,17.4 nM
"COc1c(C)cc(-c2ccc3c(c2)OCC(C)(C)C3NC(=O)O[C@@H]2CN3CCC2CC3)cc1C (stereo partly drawn) [Example 255, (S)-quinuclidin-3-yl (7-(4-methoxy-3,5-dimethylphenyl)-3,3-dimethylchroman-4-yl)carbamate]",1.2 nM,5.1 nM
"CCCCc1ccc(-c2ccc3c(c2)OCC(C)(C)C3NC(=O)O[C@@H]2CN3CCC2CC3)cc1 (stereo partly drawn) [Example 256, (S)-quinuclidin-3-yl (7-(4-butylphenyl)-3,3-dimethylchroman-4-yl)carbamate]",0.39 nM,0.2 nM
"CC(C)Cc1ccc(-c2ccc3c(c2)OCC(C)(C)C3NC(=O)O[C@@H]2CN3CCC2CC3)cc1 (stereo partly drawn) [Example 257, (S)-quinuclidin-3-yl (7-(4-isobutylphenyl)-3,3-dimethylchroman-4-yl)carbamate]",0.36 nM,0.7 nM
"CC(C)Oc1ccc(-c2ccc3c(c2)OCC(C)(C)C3NC(=O)O[C@@H]2CN3CCC2CC3)cn1 (stereo partly drawn) [Example 258, (S)-quinuclidin-3-yl (7-(6-isopropoxypyridin-3-yl)-3,3-dimethylchroman-4-yl)carbamate]",0.45 nM,1 nM
"CC1(C)COc2cc(-c3ccc(-c4ccon4)cc3)ccc2C1NC(=O)O[C@@H]1CN2CCC1CC2 (stereo partly drawn) [Example 259, (S)-quinuclidin-3-yl (7-(4-(isoxazol-3-yl)phenyl)-3,3-dimethylchroman-4-yl)carbamate]",1.14 nM,6.9 nM
"CC(C)COc1ccc(-c2ccc3c(c2)OCC(C)(C)C3NC(=O)O[C@@H]2CN3CCC2CC3)cc1 (stereo partly drawn) [Example 260, (S)-quinuclidin-3-yl (7-(4-isobutoxyphenyl)-3,3-dimethylchroman-4-yl)carbamate]",0.51 nM,0.3 nM
"CC(C)Oc1ccc(-c2ccc3c(c2)OCC(C)(C)C3NC(=O)O[C@@H]2CN3CCC2CC3)cc1F (stereo partly drawn) [Example 261, (S)-quinuclidin-3-yl (7-(3-fluoro-4-isopropoxyphenyl)-3,3-dimethylchroman-4-yl)carbamate]",0.65 nM,2.6 nM
"CC1(C)COc2cc(-c3ccc(C(F)(F)F)cc3F)ccc2C1NC(=O)O[C@@H]1CN2CCC1CC2 (stereo partly drawn) [Example 262, (S)-quinuclidin-3-yl (7-(2-fluoro-4-(trifluoromethyl)phenyl)-3,3-dimethylchroman-4-yl)carbamate]",0.52 nM,3.7 nM
"Cc1cc(-c2ccc3c(c2)OCC(C)(C)C3NC(=O)O[C@@H]2CN3CCC2CC3)cc(C)c1OC(C)C (stereo partly drawn) [Example 263, (S)-quinuclidin-3-yl (7-(4-isopropoxy-3,5-dimethylphenyl)-3,3-dimethylchroman-4-yl)carbamate]",1.44 nM,4 nM
"CC1(C)COc2cc(-c3ccccc3)ccc2C1NC(=O)O[C@@H]1CN2CCC1CC2 (stereo partly drawn) [Example 264, (S)-quinuclidin-3-yl (3,3-dimethyl-7-phenylchroman-4-yl)carbamate]",0.35 nM,0.7 nM
"CC1(C)COc2cc(-c3cccnc3)ccc2C1NC(=O)O[C@@H]1CN2CCC1CC2 (stereo partly drawn) [Example 265, (S)-quinuclidin-3-yl (3,3-dimethyl-7-(pyridin-3-yl)chroman-4-yl)carbamate]",2.03 nM,38.7 nM
"CC1(C)COc2cc(-c3ccccn3)ccc2C1NC(=O)O[C@@H]1CN2CCC1CC2 (stereo partly drawn) [Example 266, (S)-quinuclidin-3-yl (3,3-dimethyl-7-(pyridin-2-yl)chroman-4-yl)carbamate]",4.07 nM,26.9 nM
"CC1(C)COc2cc(Cc3ccccc3)ccc2C1NC(=O)O[C@@H]1CN2CCC1CC2 (stereo partly drawn) [Example 267, (S)-quinuclidin-3-yl (7-benzyl-3,3-dimethylchroman-4-yl)carbamate]",1.48 nM,9.1 nM
"Cc1cccc(-c2ccc3c(c2)OCC(C)(C)C3NC(=O)O[C@@H]2CN3CCC2CC3)c1 (stereo partly drawn) [Example 268, (S)-quinuclidin-3-yl (3,3-dimethyl-7-(m-tolyl)chroman-4-yl)carbamate]",0.62 nM,1.4 nM
"Cc1ccc(-c2ccc3c(c2)OCC(C)(C)C3NC(=O)O[C@@H]2CN3CCC2CC3)cc1 (stereo partly drawn) [Example 269, (S)-quinuclidin-3-yl (3,3-dimethyl-7-(p-tolyl)chroman-4-yl)carbamate]",0.66 nM,1.9 nM
"Cc1ccccc1-c1ccc2c(c1)OCC(C)(C)C2NC(=O)O[C@@H]1CN2CCC1CC2 (stereo partly drawn) [Example 270, (S)-quinuclidin-3-yl (3,3-dimethyl-7-(o-tolyl)chroman-4-yl)carbamate]",0.78 nM,1 nM
"CC1(C)COc2cc(/C=C/c3ccsc3)ccc2C1NC(=O)O[C@@H]1CN2CCC1CC2 (stereo partly drawn) [Example 271, (S)-quinuclidin-3-yl (3,3-dimethyl-7-((E)-2-(thiophen-3-yl)vinyl)chroman-4-yl)carbamate]",1.26 nM,9 nM
"C=Cc1ccc(-c2ccc3c(c2)OCC(C)(C)C3NC(=O)O[C@@H]2CN3CCC2CC3)cc1 (stereo partly drawn) [Example 272, (S)-quinuclidin-3-yl (3,3-dimethyl-7-(4-vinylphenyl)chroman-4-yl)carbamate]",0.89 nM,4.4 nM
"CCc1ccc(-c2ccc3c(c2)OCC(C)(C)C3NC(=O)O[C@@H]2CN3CCC2CC3)cc1 (stereo partly drawn) [Example 273, (S)-quinuclidin-3-yl (7-(4-ethylphenyl)-3,3-dimethylchroman-4-yl)carbamate]",0.46 nM,2.9 nM
"C=Cc1ccccc1-c1ccc2c(c1)OCC(C)(C)C2NC(=O)O[C@@H]1CN2CCC1CC2 (stereo partly drawn) [Example 274, (S)-quinuclidin-3-yl (3,3-dimethyl-7-(2-vinylphenyl)chroman-4-yl)carbamate]",0.58 nM,1.7 nM
"CCOc1ccc(-c2ccc3c(c2)OCC(C)(C)C3NC(=O)O[C@@H]2CN3CCC2CC3)c(C)c1 (stereo partly drawn) [Example 275, (S)-quinuclidin-3-yl (7-(4-ethoxy-2-methylphenyl)-3,3-dimethylchroman-4-yl)carbamate]",0.84 nM,2.6 nM
"CC1(C)COc2cc(-c3ccc(OCc4ccccc4)cc3)ccc2C1NC(=O)O[C@@H]1CN2CCC1CC2 (stereo partly drawn) [Example 276, (S)-quinuclidin-3-yl (7-(4-(benzyloxy)phenyl)-3,3-dimethylchroman-4-yl)carbamate]",0.54 nM,1.3 nM
"CC1(C)COc2cc(-c3cccc(OCc4ccccc4)c3)ccc2C1NC(=O)O[C@@H]1CN2CCC1CC2 (stereo partly drawn) [Example 277, (S)-quinuclidin-3-yl (7-(3-(benzyloxy)phenyl)-3,3-dimethylchroman-4-yl)carbamate]",0.65 nM,0.9 nM
"CC1(C)COc2cc(-c3ccc(F)nc3F)ccc2C1NC(=O)O[C@@H]1CN2CCC1CC2 (stereo partly drawn) [Example 278, (S)-quinuclidin-3-yl (7-(2,6-difluoropyridin-3-yl)-3,3-dimethylchroman-4-yl)carbamate]",2.19 nM,12.4 nM
"C=CCc1ccccc1-c1ccc2c(c1)OCC(C)(C)C2NC(=O)O[C@@H]1CN2CCC1CC2 (stereo partly drawn) [Example 279, (S)-quinuclidin-3-yl (7-(2-allylphenyl)-3,3-dimethylchroman-4-yl)carbamate]",0.73 nM,6.2 nM
